“Also recorded” adds a separate entry of the source. Read-outs that look alike come from different tables or passages of the source.
Experiments:
[1] = test system: latent HIV-1 infection in CA5 T cells; assay type: cell-based; conditions: for HIV-1 reactivation in combination with bryostatin: 24 hour pretreatment with proteasome inhibitor, bryostatin titrated; for HIV-1 reactivation in combination with bryostatin / HIV-1 reactivation in combination with disulfiram: read 24 hours after addition; for HIV-1 reactivation by the proteasome inhibitor by itself: CA5 T cells pretreated 24 hours; for HIV-1 reactivation in combination with disulfiram: 24 hour pretreatment with bortezomib, disulfiram titrated, FIG. 3
Method: (§1) Increased protein-ubiquitination for targeting to the proteasome by the E3 ubiquitin ligase GRAIL is a hallmark of T cell anergy. […] FIG. 2B is a graph showing bortezomib in combination with the activator bryostatin. FIG. 2C is a graph showing bortezomib in combination with the activator prostratin.
CA5 T cells were pretreated for 24 hours with bortezomib. Disulfiram was titrated on control cells or bortezomib pretreated T cells. Reactivation was measured 24 hours after disulfiram addition by determining the percentage of GFP-positive cells using flow cytometric analysis.
CA5 T cells were pretreated for 24 hours with carfilzomib. Bryostatin was titrated on control cells or carfilzomib pretreated T cells. Reactivation was measured 24 hours after bryostatin addition by determining the percentage of GFP-positive cells using flow cytometric analysis.
As mentioned above, T cell anergy has been reported to be associated with a series of changes in the kinase activity profile. A hallmark of T cell anergy is the expression of GRAIL (gene related to anergy in lymphocytes), a trans-membrane RING finger ubiquitin E3 ligase (Anandasabapathy et al., Immunity 18:535-547 (2003)). As other ubiquitin ligases, GRAIL tags proteins for degradation by the proteasome. […] In order to determine this, two FDA-approved proteasome inhibitors, bortezomib and carfilzomib, were tested for their ability to mobilize latent HIV-1 infection, either by themselves, or in combination with potentially therapeutically relevant known HIV-1 reactivating activators, such as bryostatin, prostratin, and disulfiram.

[2] = test system: latently HIV-1 infected EF7 and CA5 T cells; conditions: PMA stimulation; cited from earlier work
[3] = test system: latent HIV-1 infection in J2574 reporter T cells; test: Establishment of latent HIV-1 infection in J2574 reporter T cells after ionomycin pretreatment; assay type: cell-based; conditions: ionomycin pretreatment of J2574 T cells versus untreated control, independent of the level of virus input, FIG. 2A
Description: as §1, with “FIGS. 2A, 2B, and 2C show targeting anergy-related mechanisms alters HIV-1 latency control. […] Increased” for “Increased”
Without being bound by any theory, a working concept derived from the altered cellular phenotype observed in latently HIV-1 infected T cells could be that HIV-1 latency is correlated with the induction of a pseudoanergic state of the host-cell. HIV-1 infection has been reported to be associated with high levels of induced T cell anergy. Exposure to gp120 has been reported to be sufficient to trigger T cell anergy (Bouhdoud et al., Journal of Virology 74:2121-2130 (2000); Dybul et al., J. Immunol. 165:1685-91 (2000); Masci et al., Journal of Leukocyte Biology 74:1117-1124 (2003); and Schols and De Clercq, Journal of Virology 70:4953-4960 (1996)). Also, other retroviruses are reported to induce epigenetic changes in their host cells. Ubiquitin and CDK2 are also known to be involved in T cell anergy (Greenwald et al., Immunity 14:145-155 (2001); and Li et al., Nature Immunology 7:1157-65 (2006)). […]

With `CC(C)C[C@H](NC(=O)[C@H](CCc1ccccc1)NC(=O)CN1CCOCC1)C(=O)N[C@@H](Cc1ccccc1)C(=O)N[C@@H](CC(C)C)C(=O)[C@@]1(C)CO1` [carfilzomib] the “HIV-1 reactivation in combination with bryostatin” value ([1]; CA5 T cells) was “trigger HIV-1 reactivation”, the “HIV-1 reactivation in combination with bryostatin” value ([1]; CA5 T cells, listed as Carfilzomib) was “potently interacted” and the “HIV-1 reactivation by the proteasome inhibitor by itself” value [1] was “triggered HIV-1 reactivation”.
In the case of `CC(C)C[C@H](NC(=O)[C@H](Cc1ccccc1)NC(=O)c1cnccn1)B(O)O` [bortezomib], the “HIV-1 reactivation in combination with prostratin” value ([1]; 24 hour pretreatment with bortezomib (5 nM), prostratin titrated, CA5 T cells, FIG. 2C) is reported as “interacted with prostratin”, the “HIV-1 reactivation in combination with disulfiram” value ([1]; CA5 T cells) is reported as “synergistically trigger HIV-1 reactivation” and the “HIV-1 reactivation in combination with disulfiram” value ([1]; CA5 T cells, listed as Bortezomib) is reported as “interacted”. For the same compound, the “activator concentrations required to trigger full HIV-1 reactivation at the population level” value ([1]; 24 hour pretreatment with proteasome inhibitor (bortezomib 5 nM), activators bryostatin or prostratin, CA5 T cells) was “reduces”, the “HIV-1 reactivation in combination with bryostatin” value ([1]; CA5 T cells) was “highly synergistic” and the “latently infected T cells in which latent HIV-1 infection was mobilized” value ([1]; bortezomib 5 nM by itself, CA5 T cells, FIG. 2B) was ~30%. For the same compound, the “HIV-1 reactivation by the proteasome inhibitor by itself” value [1] was “mobilizes latent HIV-1 infection”.
For `CCCCCCCCCCCCCC(=O)O[C@@H]1[C@@H](C)[C@@]2(O)[C@@H](C=C(CO)C[C@]3(O)C(=O)C(C)=C[C@@H]23)[C@@H]2C(C)(C)[C@]12OC(C)=O` [PMA, phorbol 12-myristate 13-acetate], the “reactivation at the population level” value [2] is listed as > 90%.
For `C[C@H](CCC(=O)O)C[C@H](C)C[C@H](C)C(=O)/C=C(\O)[C@H](C)C[C@H](C)C/C=C/[C@@H](C)[C@@H](O)[C@@H](C)[C@@H](O)C[C@@H]1CC[C@@](C)([C@H]2CC[C@@](C)([C@@H](C)O)O2)O1` [ionomycin], the “amount of established stable latent infection events” value [3] was “promotes the establishment of latent HIV-1 infection; also recorded: almost doubled”.

Reference: patent US20170014469A1, “METHODS OF RE[…] LATENT HUMAN IMMUNODEFICIENCY VIRUS” (priority 2013, published 2017)
